{"source": "patent US20220332799A1", "about": "“HERV INHIBITORS FOR USE IN TREATING TAUOPATHIES” (Deutsches Zentrum Für Neurodegenerative Erkrankungen E.V. …, priority 2019, published 2022)", "system": "HEK Tau-FusionRed^sol cells expressing murine XPR1-HA", "assay": "Tau aggregate induction in recipient cells by coculture with N2a s2E Tau-GFP^CBD donor cells", "format": "cell-based, human", "details": "donors pretreated with 10 μM; coculture 3 d in the presence of 10 μM; vs DMSO", "experimental": "To examine this effect on Tau aggregate spreading, an N2a s2E cell clone stably propagating aggregated Tau-GFP^CBD was produced (FIG. 11a). […]. Cells and EVs were analyzed for the presence of aggregated Tau-GFP. Pronase-resistant Tau-GFP was found in both cell lysate and EVs (FIG. 2q). To inhibit MuERV gene product maturation, donor cells were treated with Amprenavir for three days. Donor cells and donor cell-derived EVs were subsequently exposed for three days to recipient HEK cells expressing soluble Tau-FusionRed and the murine XPR1 receptor variant required for MuERV Env interaction. Due to this long incubation time, the coculture and EV induction assays were performed in the presence of Amprenavir (FIG. 11b). […]\nRecipient cells were cultured on CellCarrier-96 plates or 384 black microplates (PerkinElmer) at appropriate cell numbers for 1 h, and then treated with 5-10 μl of prepared samples (isolated EVs or recombinant NM fibrils). […] On average, a total of 3-4×10^4 cells per well and at least 3 wells per treatment were analyzed.\nThe treatment of cells with Amprenavir (10 μM; Santa Cruz) and DMSO was performed for 72 h in EV-depleted medium in T175 flasks. Afterwards, the total numbers of viable cells and the viability upon drug treatment were determined using the Vi-VELL™ XR Cell Viability Analyzer (Beckman Coulter). […]", "note": "Entries after “also recorded” stand apart in the source; their conditions may differ.", "data": [{"molecule": "CC(C)CN(C[C@@H](O)[C@H](Cc1ccccc1)NC(=O)O[C@H]1CCOC1)S(=O)(=O)c1ccc(N)cc1", "note": "[Amprenavir]", "values": [{"measurement": "Tau-FusionRed aggregate induction in cocultures", "value": "decreased Tau-FusionRed aggregate induction in Amprenavir-treated cocultures; also recorded: significantly decreased Tau-FusionRed aggregate induction in recipients"}]}]}
